Laboratory results published in patent publication US20260217837A1, “FGFR3 BINDING MOLECULES AND METHODS OF USE THEREOF” (Regeneron Pharmaceuticals, Inc., priority 2023, published 2026).

Tests used:
[1] = test system: locally advanced or metastatic bladder cancer; details: patients who receive cisplatin; Wong & Rosenberg, 2021; cited from earlier work
[2] = test system: BaF3 cells expressing the double mutant FGFR3 S249C+V557M; experiment: BaF3 cell viability, FGFR3 S249C+V557M; type: cell-based; details: 72 hours, FGF1/heparin
From the text: (§1) cDNA expressing FGFR3 mutants (S249C, S248C, Y375C, V555M, V555L, S249C+V555M, or S249C+V555L) were synthesized and cloned into pLVX Lenti-viral vector (Thermo Fisher). Viral particles were generated by lipofectamine transfection of LentiX 293T cells using Lenti-X packaging single shots following manufacturer's protocol (Clontech/Takara) and concentrated using Lenti-X concentrator and titer determined using Lenti-X p24 rapid titer kit (Clontech/Takara). BaF3 cells were transduced with virus at ~0.3 MOI.
(§2) For cell proliferation assays, engineered BaF3/hFGFR3 cells grown in complete medium were washed and plated in IL-3-free culture media±5 μg/ml heparin and 1 nM human FGF1. Cells were plated out at 1×10^5 cells/well into 96-well plates, followed by the addition of 1:3 serially diluted antibodies as indicated in figures. After addition of antibodies, cells were incubated at 37° C. for 72 h followed by the addition of CellTiter-Glo™ (Promega) reagent. The luminescent signal was detected by Envision plate reader (PerkinElmer). Data was analyzed using Prism software (GraphPad). […]

[3] = test system: BaF3 cells expressing FGFR3 V557L; experiment: BaF3 cell viability, FGFR3 V557L; type: cell-based; details: 72 hours, FGF1/heparin
From the text: as §1, §2

[4] = test system: BaF3 cells expressing the double mutant FGFR3 S249C+V557L; experiment: BaF3 cell viability, FGFR3 S249C+V557L; type: cell-based; details: 72 hours, FGF1/heparin
From the text: as §1, §2

[5] = test system: BaF3 cells expressing FGFR3 V557M; experiment: BaF3 cell viability, FGFR3 V557M; type: cell-based; details: 72 hours, FGF1/heparin
From the text: as §1, §2

| Molecule | median overall survival [1] | growth of BaF3 cells expressing FGFR3 S249C+V557M [2] | growth of BaF3 cells expressing FGFR3 V557L [3] | growth of BaF3 cells expressing FGFR3 S249C+V557L [4] | growth of BaF3 cells expressing FGFR3 V557M [5] |
| --- | --- | --- | --- | --- | --- |
| N.N.[Cl][Pt][Cl] [cisplatin] | approximately 14 months |  |  |  |  |
| AZD4547 [reference compound] |  | ineffective | ineffective | ineffective | ineffective |
